Test results published in publication PMC11684029, “Discovery of VU6024578/BI02982816: An mGlu1 Positive Allosteric Modulator with Efficacy in Preclinical Antipsychotic and Cognition Models” (Journal of Medicinal Chemistry, 2024).

Legend:
[1] = target: hERG (Homo sapiens, UniProt Q12809); assay: hERG manual patch clamp assay; type: cell-based
[2] = hydrolytic stability; type: physicochemical
[3] = rat IV/PO PK crossover study; type: in vivo
Text: Thus, 19d was a stable chemical entity in vivo. […] Overall, the rat PK and CNS penetration was supportive of in vivo work and progression down the development flow-chart.

[4] = target: T1, 5-HT transporter (Homo sapiens, UniProt P31645); assay: Eurofins radioligand binding panel; details: antagonist radioligand
T1 construct: Eurofins
Text: (§1) Table S1. Eurofins Lead Profiling Screen Data
(§2) This is a radioligand binding panel of 80 targets including GPCRs, ion channels, transporters and nuclear hormones. Biochemical assay results are presented as the percent inhibition of specific […]
(§3) Results showing an inhibition or stimulation higher than 50% are considered to represent significant effect and are highlighted

[5] = target: T2, 5-HT2A (Homo sapiens, UniProt P28223); assay: Eurofins radioligand binding panel; details: antagonist radioligand
T2 construct: Eurofins
Text: as §1, §2, §3

[6] = target: T3, 5-HT2C (Homo sapiens, UniProt P28335); assay: Eurofins radioligand binding panel; details: antagonist radioligand
T3 construct: Eurofins
Text: as §1, §2, §3

[7] = target: T4, 5-HT5a (Homo sapiens, UniProt P47898); assay: Eurofins radioligand binding panel; details: agonist radioligand
T4 construct: Eurofins
Text: as §1, §2, §3

[8] = target: T5, 5-HT6 (Homo sapiens, UniProt P50406); assay: Eurofins radioligand binding panel; details: agonist radioligand
T5 construct: Eurofins
Text: as §1, §2, §3

[9] = target: T6, CCR1 (Homo sapiens, UniProt P32246); assay: Eurofins radioligand binding panel; details: agonist radioligand
T6 construct: Eurofins (panel run as a service)
Text: as §1, §2, §3

[10] = target: T7, CXCR2 (IL-8B) (Homo sapiens, UniProt P25025); assay: Eurofins radioligand binding panel; details: agonist radioligand
T7 construct: Eurofins (panel run as a service)
Text: as §1, §2, §3

[11] = target: T8, D1 (Homo sapiens, UniProt P21728); assay: Eurofins radioligand binding panel; details: antagonist radioligand
T8 construct: Eurofins (panel run as a service)
Text: as §1, §2, §3

[12] = target: T9, D2S (Homo sapiens, UniProt P14416); assay: Eurofins radioligand binding panel; details: antagonist radioligand
T9 construct: Eurofins (panel run as a service)
Text: as §1, §2, §3

[13] = target: T10, D3 (Homo sapiens, UniProt P35462); assay: Eurofins radioligand binding panel; details: antagonist radioligand
T10 construct: Eurofins (panel run as a service)
Text: as §1, §2, §3

[14] = target: T11, D4.4 (Homo sapiens, UniProt P21917); assay: Eurofins radioligand binding panel; details: antagonist radioligand
T11 construct: Eurofins (panel run as a service)
Text: as §1, §2, §3

[15] = target: T12, D5 (Homo sapiens, UniProt P21918); assay: Eurofins radioligand binding panel; details: antagonist radioligand
T12 construct: Eurofins (panel run as a service)
Text: as §1, §2, §3

[16] = target: T13, EP2 (Homo sapiens, UniProt P43116); assay: Eurofins radioligand binding panel; details: agonist radioligand
T13 construct: Eurofins
Text: as §1, §2, §3

[17] = target: T14, ETA (Homo sapiens, UniProt P25101); assay: Eurofins radioligand binding panel; details: agonist radioligand
T14 construct: Eurofins (panel run as a service)
Text: as §1, §2, §3

[18] = target: T15, ETB (Homo sapiens, UniProt P24530); assay: Eurofins radioligand binding panel; details: agonist radioligand
T15 construct: Eurofins (panel run as a service)
Text: as §1, §2, §3

[19] = target: T16, GAL1 (Homo sapiens, UniProt P47211); assay: Eurofins radioligand binding panel; details: agonist radioligand
T16 construct: Eurofins (panel run as a service)
Text: as §1, §2, §3

[20] = target: T17, GAL2 (Homo sapiens, UniProt O43603); assay: Eurofins radioligand binding panel; details: agonist radioligand
T17 construct: Eurofins (panel run as a service)
Text: as §1, §2, §3

[21] = target: T18, GR (Homo sapiens, UniProt P04150); assay: Eurofins radioligand binding panel; details: agonist radioligand
T18 construct: Eurofins
Text: as §1, §2, §3

[22] = target: T19, H1 (Homo sapiens, UniProt P35367); assay: Eurofins radioligand binding panel; details: antagonist radioligand
T19 construct: Eurofins (panel run as a service)
Text: as §1, §2, §3

[23] = target: T20, H2 (Homo sapiens, UniProt P25021); assay: Eurofins radioligand binding panel; details: antagonist radioligand
T20 construct: Eurofins (panel run as a service)
Text: as §1, §2, §3

[24] = target: T21, M1 (Homo sapiens, UniProt P11229); assay: Eurofins radioligand binding panel; details: antagonist radioligand
T21 construct: Eurofins
Text: as §1, §2, §3

[25] = target: T22, M3 (Homo sapiens, UniProt P20309); assay: Eurofins radioligand binding panel; details: antagonist radioligand
T22 construct: Eurofins
Text: as §1, §2, §3

[26] = target: T23, M4 (Homo sapiens, UniProt P08173); assay: Eurofins radioligand binding panel; details: antagonist radioligand
T23 construct: Eurofins
Text: as §1, §2, §3

[27] = target: T24, M5 (Homo sapiens, UniProt P08912); assay: Eurofins radioligand binding panel; details: antagonist radioligand
T24 construct: Eurofins
Text: as §1, §2, §3

[28] = target: T25, MC4 (Homo sapiens, UniProt P32245); assay: Eurofins radioligand binding panel; details: agonist radioligand
T25 construct: Eurofins
Text: as §1, §2, §3

[29] = target: T26, MT1 (ML1A) (Homo sapiens, UniProt P48039); assay: Eurofins radioligand binding panel; details: agonist radioligand
T26 construct: Eurofins
Text: as §1, §2, §3

[30] = target: T27, NK2 (Homo sapiens, UniProt P21452); assay: Eurofins radioligand binding panel; details: agonist radioligand
T27 construct: Eurofins
Text: as §1, §2, §3

[31] = target: T28, NK3 (Homo sapiens, UniProt P29371); assay: Eurofins radioligand binding panel; details: antagonist radioligand
T28 construct: Eurofins
Text: as §1, §2, §3

[32] = target: T29, NOP (ORL1) (Homo sapiens, UniProt P41146); assay: Eurofins radioligand binding panel; details: agonist radioligand
T29 construct: Eurofins
Text: as §1, §2, §3

[33] = target: T30, NTS1 (NT1) (Homo sapiens, UniProt P30989); assay: Eurofins radioligand binding panel; details: agonist radioligand
T30 construct: Eurofins
Text: as §1, §2, §3

[34] = system: Na+ channel (site 2); assay: Eurofins radioligand binding panel; details: antagonist radioligand
Text: as §1, §2, §3

[35] = system: P2X; assay: Eurofins radioligand binding panel; details: agonist radioligand
Text: as §1, §2, §3

[36] = target: T31, PAC1 (PACAP) (Homo sapiens, UniProt P41586); assay: Eurofins radioligand binding panel; details: agonist radioligand
T31 construct: Eurofins
Text: as §1, §2, §3

[37] = target: T32, PPARgamma (Homo sapiens, UniProt P37231); assay: Eurofins radioligand binding panel; details: agonist radioligand
T32 construct: Eurofins
Text: as §1, §2, §3

[38] = target: T33, V1a (Homo sapiens, UniProt P37288); assay: Eurofins radioligand binding panel; details: agonist radioligand
T33 construct: Eurofins
Text: as §1, §2, §3

[39] = target: T34, VPAC1 (VIP1) (Homo sapiens, UniProt P32241); assay: Eurofins radioligand binding panel; details: agonist radioligand
T34 construct: Eurofins
Text: as §1, §2, §3

[40] = target: T35, Y2 (Homo sapiens, UniProt P49146); assay: Eurofins radioligand binding panel; details: agonist radioligand
T35 construct: Eurofins
Text: as §1, §2, §3

[41] = target: T36, mu (MOP) (Homo sapiens, UniProt P35372); assay: Eurofins radioligand binding panel; details: agonist radioligand
T36 construct: Eurofins
Text: as §1, §2, §3

[42] = target: T37, norepinephrine transporter (Homo sapiens, UniProt P23975); assay: Eurofins radioligand binding panel; details: antagonist radioligand
T37 construct: Eurofins
Text: as §1, §2, §3

T16 sequence (P47211 whole entry): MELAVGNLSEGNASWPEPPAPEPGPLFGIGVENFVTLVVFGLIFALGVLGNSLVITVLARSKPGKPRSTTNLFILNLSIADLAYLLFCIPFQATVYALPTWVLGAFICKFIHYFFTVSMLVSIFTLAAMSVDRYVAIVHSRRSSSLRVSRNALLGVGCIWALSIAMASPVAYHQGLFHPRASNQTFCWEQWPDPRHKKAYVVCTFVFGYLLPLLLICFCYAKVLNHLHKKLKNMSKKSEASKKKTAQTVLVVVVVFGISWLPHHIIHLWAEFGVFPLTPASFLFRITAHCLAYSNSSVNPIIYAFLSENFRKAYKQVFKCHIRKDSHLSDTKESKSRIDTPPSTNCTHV
T20 sequence (P25021 whole entry): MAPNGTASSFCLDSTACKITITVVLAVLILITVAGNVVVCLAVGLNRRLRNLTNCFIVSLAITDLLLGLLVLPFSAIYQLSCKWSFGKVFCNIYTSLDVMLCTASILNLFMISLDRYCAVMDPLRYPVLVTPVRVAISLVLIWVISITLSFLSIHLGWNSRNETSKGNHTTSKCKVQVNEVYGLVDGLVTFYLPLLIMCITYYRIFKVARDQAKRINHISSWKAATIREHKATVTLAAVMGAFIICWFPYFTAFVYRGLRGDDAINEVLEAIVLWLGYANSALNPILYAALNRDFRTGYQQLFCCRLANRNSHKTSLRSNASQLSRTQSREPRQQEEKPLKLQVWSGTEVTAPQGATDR
T30 sequence (P30989 whole entry): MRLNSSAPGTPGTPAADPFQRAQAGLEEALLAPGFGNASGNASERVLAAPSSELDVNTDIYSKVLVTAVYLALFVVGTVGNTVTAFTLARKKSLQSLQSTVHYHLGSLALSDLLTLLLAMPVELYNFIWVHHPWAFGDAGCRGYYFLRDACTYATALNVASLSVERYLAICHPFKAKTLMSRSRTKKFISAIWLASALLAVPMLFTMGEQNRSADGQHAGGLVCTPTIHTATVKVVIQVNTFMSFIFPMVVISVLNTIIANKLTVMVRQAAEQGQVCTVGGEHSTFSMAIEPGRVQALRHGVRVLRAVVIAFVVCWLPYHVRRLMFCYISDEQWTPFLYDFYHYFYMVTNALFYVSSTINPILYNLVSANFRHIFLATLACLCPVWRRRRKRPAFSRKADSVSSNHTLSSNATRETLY
T31 sequence (P41586 21-468): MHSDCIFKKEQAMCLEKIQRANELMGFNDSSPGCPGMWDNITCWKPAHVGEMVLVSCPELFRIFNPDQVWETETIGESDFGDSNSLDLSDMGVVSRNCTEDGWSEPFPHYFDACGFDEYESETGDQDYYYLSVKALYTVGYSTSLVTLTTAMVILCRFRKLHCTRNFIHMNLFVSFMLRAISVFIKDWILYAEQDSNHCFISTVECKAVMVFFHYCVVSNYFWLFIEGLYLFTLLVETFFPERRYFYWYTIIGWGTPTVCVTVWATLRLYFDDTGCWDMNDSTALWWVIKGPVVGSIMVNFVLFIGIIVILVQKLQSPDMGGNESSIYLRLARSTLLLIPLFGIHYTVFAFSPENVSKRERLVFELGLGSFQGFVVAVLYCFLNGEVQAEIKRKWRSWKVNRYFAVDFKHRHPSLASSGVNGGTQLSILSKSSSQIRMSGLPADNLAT
T23 sequence (P08173 whole entry): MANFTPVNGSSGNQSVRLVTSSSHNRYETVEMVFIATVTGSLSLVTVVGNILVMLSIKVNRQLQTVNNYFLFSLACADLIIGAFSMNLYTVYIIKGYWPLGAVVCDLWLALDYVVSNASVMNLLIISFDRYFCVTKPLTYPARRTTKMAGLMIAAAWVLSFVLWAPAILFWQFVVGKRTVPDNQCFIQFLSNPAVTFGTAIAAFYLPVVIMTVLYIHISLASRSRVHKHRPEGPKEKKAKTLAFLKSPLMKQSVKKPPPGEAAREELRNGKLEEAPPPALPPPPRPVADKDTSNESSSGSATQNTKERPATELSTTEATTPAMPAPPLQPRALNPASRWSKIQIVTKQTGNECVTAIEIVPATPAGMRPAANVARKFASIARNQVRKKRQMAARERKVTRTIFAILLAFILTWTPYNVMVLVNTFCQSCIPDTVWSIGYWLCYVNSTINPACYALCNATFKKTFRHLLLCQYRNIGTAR
T4 sequence (P47898 whole entry): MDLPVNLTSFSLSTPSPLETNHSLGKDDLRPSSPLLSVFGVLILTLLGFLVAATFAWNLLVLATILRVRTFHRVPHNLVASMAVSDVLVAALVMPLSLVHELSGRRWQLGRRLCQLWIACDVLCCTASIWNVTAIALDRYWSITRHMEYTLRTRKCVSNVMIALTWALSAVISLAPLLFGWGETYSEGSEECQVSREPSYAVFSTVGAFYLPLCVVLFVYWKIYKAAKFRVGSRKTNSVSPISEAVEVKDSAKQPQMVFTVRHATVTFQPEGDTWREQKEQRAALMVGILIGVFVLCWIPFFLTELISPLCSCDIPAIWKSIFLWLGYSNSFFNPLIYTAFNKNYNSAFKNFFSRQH
T8 sequence (P21728 whole entry): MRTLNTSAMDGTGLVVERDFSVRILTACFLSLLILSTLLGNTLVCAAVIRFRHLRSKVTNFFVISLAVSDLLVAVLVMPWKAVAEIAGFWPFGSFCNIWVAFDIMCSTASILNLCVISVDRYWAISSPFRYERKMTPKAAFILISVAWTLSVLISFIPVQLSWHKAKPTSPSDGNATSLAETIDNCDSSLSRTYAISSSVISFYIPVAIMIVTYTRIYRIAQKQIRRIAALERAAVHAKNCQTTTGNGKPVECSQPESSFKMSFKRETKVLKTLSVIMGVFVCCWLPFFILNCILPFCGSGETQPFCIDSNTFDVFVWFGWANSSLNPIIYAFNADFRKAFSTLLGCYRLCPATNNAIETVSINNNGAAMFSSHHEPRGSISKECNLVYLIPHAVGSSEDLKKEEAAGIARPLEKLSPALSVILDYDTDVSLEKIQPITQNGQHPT
T25 sequence (P32245 whole entry): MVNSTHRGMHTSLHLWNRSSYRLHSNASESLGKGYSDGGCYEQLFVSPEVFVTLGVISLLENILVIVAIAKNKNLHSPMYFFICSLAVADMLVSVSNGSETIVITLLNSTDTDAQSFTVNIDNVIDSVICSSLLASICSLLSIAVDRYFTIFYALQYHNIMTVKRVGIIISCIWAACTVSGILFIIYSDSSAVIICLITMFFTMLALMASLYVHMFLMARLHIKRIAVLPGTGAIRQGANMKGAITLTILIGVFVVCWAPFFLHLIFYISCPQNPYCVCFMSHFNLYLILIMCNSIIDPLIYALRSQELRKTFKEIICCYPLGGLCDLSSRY
T7 sequence (P25025 whole entry): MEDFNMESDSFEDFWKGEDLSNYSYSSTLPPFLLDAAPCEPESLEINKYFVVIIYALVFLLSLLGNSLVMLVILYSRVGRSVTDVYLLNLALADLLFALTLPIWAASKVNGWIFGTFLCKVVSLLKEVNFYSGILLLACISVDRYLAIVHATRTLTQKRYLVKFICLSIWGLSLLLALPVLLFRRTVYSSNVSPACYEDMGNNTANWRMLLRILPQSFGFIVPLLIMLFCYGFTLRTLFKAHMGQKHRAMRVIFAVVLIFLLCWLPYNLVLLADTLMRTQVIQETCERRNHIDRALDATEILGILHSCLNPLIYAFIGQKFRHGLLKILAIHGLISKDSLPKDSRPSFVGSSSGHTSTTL
T22 sequence (P20309 whole entry): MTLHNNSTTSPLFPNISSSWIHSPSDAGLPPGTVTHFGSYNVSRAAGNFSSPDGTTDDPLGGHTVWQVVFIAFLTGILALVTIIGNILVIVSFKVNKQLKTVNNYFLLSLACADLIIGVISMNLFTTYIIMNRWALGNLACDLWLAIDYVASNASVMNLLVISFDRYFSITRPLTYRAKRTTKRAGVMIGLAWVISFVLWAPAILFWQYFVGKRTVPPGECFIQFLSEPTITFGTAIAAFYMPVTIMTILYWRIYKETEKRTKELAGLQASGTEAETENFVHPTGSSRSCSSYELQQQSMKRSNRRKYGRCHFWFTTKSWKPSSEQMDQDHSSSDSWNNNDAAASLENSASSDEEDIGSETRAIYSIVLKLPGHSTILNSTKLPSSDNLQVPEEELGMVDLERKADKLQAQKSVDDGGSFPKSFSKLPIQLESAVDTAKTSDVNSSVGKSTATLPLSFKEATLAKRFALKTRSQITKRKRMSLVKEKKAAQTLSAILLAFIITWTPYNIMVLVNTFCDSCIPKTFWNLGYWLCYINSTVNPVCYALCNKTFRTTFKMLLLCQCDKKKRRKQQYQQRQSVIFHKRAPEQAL
T36 sequence (P35372 whole entry): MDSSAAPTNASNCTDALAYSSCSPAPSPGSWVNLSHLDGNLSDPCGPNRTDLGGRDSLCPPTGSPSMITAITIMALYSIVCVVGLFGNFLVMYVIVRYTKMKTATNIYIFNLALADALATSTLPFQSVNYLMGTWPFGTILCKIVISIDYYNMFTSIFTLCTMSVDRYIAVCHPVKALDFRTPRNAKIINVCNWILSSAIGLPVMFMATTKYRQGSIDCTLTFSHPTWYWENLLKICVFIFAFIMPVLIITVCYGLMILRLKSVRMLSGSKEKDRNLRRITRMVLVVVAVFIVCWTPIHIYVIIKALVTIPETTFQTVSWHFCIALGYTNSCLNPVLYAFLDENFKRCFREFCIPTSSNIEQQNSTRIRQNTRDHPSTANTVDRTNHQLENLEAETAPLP
T6 sequence (P32246 whole entry): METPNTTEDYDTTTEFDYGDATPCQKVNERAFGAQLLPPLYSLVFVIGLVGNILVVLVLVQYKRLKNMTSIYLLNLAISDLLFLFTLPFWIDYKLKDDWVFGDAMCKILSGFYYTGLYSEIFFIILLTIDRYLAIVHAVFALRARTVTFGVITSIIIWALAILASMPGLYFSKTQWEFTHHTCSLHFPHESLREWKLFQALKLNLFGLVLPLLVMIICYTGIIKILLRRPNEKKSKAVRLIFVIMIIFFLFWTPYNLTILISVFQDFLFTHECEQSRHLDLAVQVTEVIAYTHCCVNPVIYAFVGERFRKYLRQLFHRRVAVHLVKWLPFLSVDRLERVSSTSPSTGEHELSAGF

Cn1nc(-c2ccnn2C)cc1CNC(=O)c1cc(-c2ccco2)ccc1Cl [Compound 19d, 2-Chloro-N-((1,2′-dimethyl-1H,2’H-[3,3′-bipyrazol]-5-yl)methyl)-5-(furan-2-yl)benzamide]
IC50 [1]: > 10 µM | hydrolytic stability ([2]; acidic, pH 2.2): hydrolytically stable | hydrolytic stability ([2]; neutral, pH 7.4): hydrolytically stable | Vss ([3]; 1 mg/kg IV): 1.78 L/kg | plasma clearance (CLp) ([3]; 1 mg/kg IV): 8.3 mL/min/kg | t1/2 ([3]; 1 mg/kg IV): 3.9 h | oral bioavailability (%F) ([3]; PO 10% tween 80): 100% | Cmax ([3]; PO arm): 4150 ng/mL | Tmax ([3]; PO arm): 2 h | AUC ([3]; plasma, PO arm): 24600 ng·h/mL | inhibition at 10 µM [4]: 47% | inhibition at 10 µM [5]: -1% | inhibition at 10 µM [6]: 3% | inhibition at 10 µM [7]: -2% | inhibition at 10 µM [8]: -7% | inhibition at 10 µM [9]: -1% | inhibition at 10 µM [10]: 3% | inhibition at 10 µM [11]: 3% | inhibition at 10 µM [12]: 6% | inhibition at 10 µM [13]: -6% | inhibition at 10 µM [14]: 22% | inhibition at 10 µM [15]: -1% | inhibition at 10 µM [16]: 41% | inhibition at 10 µM [17]: -6% | inhibition at 10 µM [18]: -27% | inhibition at 10 µM [19]: -4% | inhibition at 10 µM [20]: -9% | inhibition at 10 µM [21]: 0% | inhibition at 10 µM [22]: 6% | inhibition at 10 µM [23]: -31% | inhibition at 10 µM [24]: 14% | inhibition at 10 µM [25]: 2% | inhibition at 10 µM [26]: 11% | inhibition at 10 µM [27]: 3% | inhibition at 10 µM [28]: 14% | inhibition at 10 µM [29]: 17% | inhibition at 10 µM [30]: 11% | inhibition at 10 µM [31]: -8% | inhibition at 10 µM [32]: -1% | inhibition at 10 µM [33]: -1% | % Inhibition at 10 µM [34]: 14% | % Inhibition at 10 µM [35]: -6% | inhibition at 10 µM [36]: -2% | inhibition at 10 µM [37]: 2% | inhibition at 10 µM [38]: 9% | inhibition at 10 µM [39]: -4% | inhibition at 10 µM [40]: -18% | inhibition at 10 µM [41]: 14% | inhibition at 10 µM [42]: 11%
